The values below come from paper PMC6681416, “Novel Derivatives of Deoxycholic Acid Bearing Linear Aliphatic Diamine and Aminoalcohol Moieties and their Cyclic Analogs at the C3 Position: Synthesis and Evaluation of Their In Vitro Antitumor Potential” (Molecules, 2019).

SMILES strings stand for the structures. Read-outs that look alike come from different tables or passages of the source.

The test system of data set [1] is KB-3-1 cells. Set-up: method as in PMID 28688958, PMID 26037611, PMID 28887170. The note with it: MTT, 24 h; values marked by asterisk; ref [21],[22],[23]; read-out: IC50 KB3-1 (cervix); cited from earlier work.
Data set [2] relates to HuTu-80 cells. Kind of data set: cells. It is filed as cell-based. The note with it: for Selectivity index HuTu-80: ratio IC50 hFF3 / IC50 HuTu-80; for IC50: Homo sapiens, HuTu80, MTT, 24 h, read-out: IC50 HuTu-80 (duodenum). An excerpt:
(§1) According to our previous data and data published by other research groups, chemical transformations of bile acids can greatly improve their antitumor potential. Thus, as the first step of evaluation of the biological activities of our novel DCA derivatives we assessed their effects on tumor cell viability. The cytotoxicity of the compounds was investigated with respect to a panel of cultured cell lines, including human duodenal HuTu-80, hepatocellular HepG2, cervical KB-3-1 and lung A549 carcinomas as well as murine macrophage RAW264.7 and non-transformed human fibroblasts hFF3 by MTT assay.
(§2) Human duodenal carcinoma HuTu-80 cells, human hepatocellular carcinoma HepG2 cells, human cervical carcinoma KB-3-1 cells, human lung carcinoma A549 cells were obtained from the Russian Cell Culture Collection (Institute of Cytology, RAS, St. Petersburg, Russia). Non-transformed human fibroblasts hFF3 were kindly provided by Dr. Olga Koval (Institute of Chemical Biology and Fundamental Medicine, SB RAS, Novosibirsk, Russia). RAW264.7 macrophages were kindly provided by Prof. Dr. Dmitry Kuprash (Engelhardt Institute of Molecular Biology, RAS, Moscow, Russia). The cells were cultured in DMEM (Sigma-Aldrich Inc., St. Louis, MO, USA) supplemented with 10% (v/v) heat-inactivated fetal bovine serum (FBS) (BioloT, St. Petersburg, Russia), 100 U/mL penicillin (ICN Biomedicals Inc., Costa Mesa, CA, USA), 100 µg/mL streptomycin and 0.25 µg/mL amphotericin; additionally, in the case of RAW264.7 cells, concentration of glucose in the medium was increased up to 4.5 mg/mL. The cells were incubated at 37 °C in 5% CO2 and 95% air (hereafter referred to as standard conditions). DCA derivatives were dissolved in DMSO to yield stock solutions of 10 mmol/L and stored at −20 °C prior to use.
(§3) Cells were seeded in triplicate in 96-well plates at a density of 5 × 10^3 (HuTu-80, HepG2, KB-3-1, hFF3), 10^4 (A549) or 5 × 10^4 (RAW264.7) cells per well. Cells were incubated under standard conditions for 24 h and then they were treated with varying doses of investigated derivatives for subsequent 24 h. Then 10 µL of MTT solution (5 mg/mL) were added to each wells and cells were incubated for an additional 2 h under standard conditions. The crystals of formazan forming within live cells were solubilized with DMSO and the absorbance was measured in a Multiscan RC plate reader (Thermo LabSystems, Helsinki, Finland) at a test and reference wavelengths of 570 nm and 620 nm, respectively. […] To perform SAR analysis, hierarchical clustering of compounds based on their IC50 values was fulfilled with Euclidean distance by using the Morpheus tool (https://software.broadinstitute.org/morpheus/), a platform designed for visualization and analysis of data in a matrix format. Heatmap, containing compounds’ SI values, were constructed by using the Excel 2010 software (Microsoft, Redmond, WA, USA). In order to reveal whether ROS participate in the induction of cell death by compound 9, HuTu-80 cells cultured in 96-well plate were pretreated by NAC at 2 mM for 1 h. Thereafter, the medium was replaced by fresh medium with compound 9 at 8 µM and the cells were incubated with subsequent 24 h under standard conditions. After this time period, the curves of cytotoxicity of compound 9 in the presence or absence of NAC were compared.

Data set [3] has as its system KB-3-1 cells. Kind of data set: MTT cytotoxicity assay, KB-3-1. Type of data set: cell-based, human. Conditions: for Selectivity index KB-3-1: ratio IC50 hFF3 / IC50 KB-3-1; for IC50: Homo sapiens, KB 3-1, MTT, 24 h, read-out: IC50 KB3-1 (cervix).
From the text: as §1, §2, §3

The test system of data set [4] is A549 cells. Further details: method as in PMID 28688958, PMID 26037611, PMID 28887170. The note with it: MTT, 24 h; values marked by asterisk; ref [21],[22],[23]; read-out: IC50 A549 (lung); cited from earlier work.
In data set [5] the test system is panel of cultured cell lines (HuTu-80, HepG2, KB-3-1, A549, RAW264.7, hFF3). Further details: method as in PMID 28688958, PMID 26037611, PMID 28887170. Conditions: MTT, 24 h; summary of Table 1 values marked by asterisk; ref [21],[22],[23]; read-out: IC50, range or lowest value over tested cell lines; cited from earlier work.
For data set [6], the system named is RAW264.7 macrophages. As to the kind of experiment: MTT cytotoxicity assay, RAW264.7. It is filed as cell-based, murine. Conditions: for IC50: Mus musculus, RAW264.7, MTT, 24 h, read-out: IC50 RAW264.7 (macrophage); for Selectivity index RAW264: ratio IC50 hFF3 / IC50 RAW264.7.
From the text: as §1, §2, §3

Data set [7] has as its system HuTu-80 cells. Further details: method as in PMID 28688958, PMID 26037611, PMID 28887170. Conditions: MTT, 24 h; values marked by asterisk; ref [21],[22],[23]; read-out: IC50 HuTu-80 (duodenum); cited from earlier work.
For data set [8], the system named is NO synthesis by IFNγ-activated RAW264.7 cells. As to the kind of experiment: Inhibition of NO production by stimulated macrophages (Griess). It is filed as cell-based, murine. Conditions: Mus musculus, RAW264.7, 24 h, read-out: IC50NO. On the procedure:
RAW264.7 cells were seeded in triplicate in 96-well plates at a density of 5 × 10^4 cells/well and incubated under standard conditions for 24 h. The cells were treated with 20 ng/mL of murine recombinant IFNγ (GIBCO, Gaithersburg, MD, USA), with or without (control) compounds at various concentrations for 24 h. The level of NO production was evaluated by determining the nitrite concentration in culture medium with a Griess Reagent System (Promega, Madison, WI, USA). The IC50^NO value was calculated as the derivative concentration required to decrease NO production to 50% of the non-treated control.

Data set [9] concerns non-transformed human fibroblasts hFF3. Set-up: method as in PMID 28688958, PMID 26037611, PMID 28887170. Conditions: MTT, 24 h; values marked by asterisk; ref [21],[22],[23]; read-out: IC50 hFF3 (fibroblast); cited from earlier work.
The test system of data set [10] is HepG2 cells. Further details: method as in PMID 28688958, PMID 26037611, PMID 28887170. The note with it: MTT, 24 h; values marked by asterisk; ref [21],[22],[23]; read-out: IC50 HepG2 (liver); cited from earlier work.
The subject of data set [11] is HepG2 cells. As to the kind of experiment: MTT cytotoxicity assay, HepG2. The note with it: for Selectivity index HepG-2: ratio IC50 hFF3 / IC50 HepG2; for IC50: Homo sapiens, HepG2, MTT, 24 h, read-out: IC50 HepG2 (liver). Type of data set: cell-based, human.
From the text: as §1, §2, §3

For data set [12], the system named is A549 cells. As to the kind of experiment: MTT cytotoxicity assay, A549. It is filed as cell-based, human. Conditions: for Selectivity index A549: ratio IC50 hFF3 / IC50 A549; for IC50: Homo sapiens, A549, MTT, 24 h, read-out: IC50 A549 (lung).
From the text: as §1, §2, §3

Data set [13] relates to non-transformed human fibroblasts hFF3. As to the kind of experiment: MTT cytotoxicity assay, hFF3. It is filed as cell-based. Conditions: HFF-3, 24 h, read-out: IC50 hFF3 (fibroblast).
From the text: as §1
as §2, with “DCA derivatives were dissolved in DMSO to yield stock solutions of 10 mmol/L and stored at −20 °C prior to use.” left out
Cells were seeded in triplicate in 96-well plates at a density of 5 × 10^3 (HuTu-80, HepG2, KB-3-1, hFF3), 10^4 (A549) or 5 × 10^4 (RAW264.7) cells per well. […] The crystals of formazan forming within live cells were solubilized with DMSO and the absorbance was measured in a Multiscan RC plate reader (Thermo LabSystems, Helsinki, Finland) at a test and reference wavelengths of 570 nm and 620 nm, respectively. […]

Data set [14] has as its system panel of cultured cell lines (HuTu-80, HepG2, KB-3-1, A549, RAW264.7, hFF3). As to the kind of experiment: MTT cytotoxicity, range over the panel of tested cell lines. Conditions: 24 h, summary of Table 1 (for 2–10 partly from ref [21]). Type of data set: cell-based.
From the text: as §1
Cells were seeded in triplicate in 96-well plates at a density of 5 × 10^3 (HuTu-80, HepG2, KB-3-1, hFF3), 10^4 (A549) or 5 × 10^4 (RAW264.7) cells per well. Cells were incubated under standard conditions for 24 h and then they were treated with varying doses of investigated derivatives for subsequent 24 h. Then 10 µL of MTT solution (5 mg/mL) were added to each wells and cells were incubated for an additional 2 h under standard conditions. The crystals of formazan forming within live cells were solubilized with DMSO and the absorbance was measured in a Multiscan RC plate reader (Thermo LabSystems, Helsinki, Finland) at a test and reference wavelengths of 570 nm and 620 nm, respectively. […]

Data set [15] is described as follows: Solubility in cell culture medium. Type of data set: physicochemical. The note with it: maximal tested concentration limited by 50 µM.

Consider `CCN(CC)CCCNC[C@]1(O)CC[C@]2(C)C3CC(=O)[C@@]4(C)C(CC[C@@H]4[C@H](C)CCC(=O)OC)[C@@H]3CC[C@@H]2C1` (stereo partly drawn) [Compound 6], for which the IC50 was 6.7 ± 0.6 µM in data set [1]; 6.8 ± 0.3 µM in [4]; 1 to 6.8 µM in data set [5]; 6.7 ± 0.5 µM in [6]; 1 ± 0.6 µM in data set [7]; greater than 10 µM in [8]. The IC50 in data set [9] is 6.2 ± 0.4 µM; in [10] it was 3.7 ± 0.17 µM. Further, the “Selectivity index HuTu-80” value in data set [2] was 6.2. Moreover, the “Selectivity index KB-3-1” value in [3] worked out at 0.9. Besides, the “Selectivity index RAW264” value in data set [6] is on record as 0.9. Besides, the “Selectivity index HepG-2” value in data set [11] was 1.7. Further, in [12], the “Selectivity index A549” value came out at 0.9.
As for `COC(=O)CC[C@@H](C)[C@H]1CC[C@H]2[C@@H]3CC[C@@H]4CC(O)(CNCCO)CC[C@]4(C)[C@H]3CC(=O)[C@]12C` (stereo partly drawn) [Compound 8, Methyl 3-hydroxy-3-((2-hydroxyethylamino)methyl)-12-oxo-5β-cholan-24-oate], the IC50 in data set [2] is 4.4 ± 0.34 µM; in data set [3], 17.7 ± 2.8 µM; in data set [6] it was 23.4 ± 1.2 µM; in data set [8], greater than 10 µM; in [13], 34.8 ± 1 µM; in [14] it was 4.4 to 34.8 µM. Moreover, the IC50 in data set [11] is 5.8 ± 1.3 µM; in [12], 29.6 ± 2.5 µM. The “Selectivity index HuTu-80” value in [2] is recorded as 7.9. The “Selectivity index KB-3-1” value in data set [3] is reported as 1.9. The “Selectivity index RAW264” value in [6] is 1.5. Besides, in data set [11], the “Selectivity index HepG-2” value turned out to be 6. In addition, in data set [12], the “Selectivity index A549” value was 1.2.
On to `COC(=O)CC[C@@H](C)[C@H]1CC[C@H]2[C@@H]3CC[C@@H]4CC(O)(CN5CCOCC5)CC[C@]4(C)[C@H]3CC(=O)[C@]12C` (stereo partly drawn) [Compound 10, Methyl 3-hydroxy-3-(morpholinomethyl)-12-oxo-5β-cholan-24-oate], for which the IC50 in data set [2] was 10 ± 0.3 µM; in data set [3] it was 8.4 ± 0.5 µM; in [6], greater than 50 µM; in data set [8], greater than 10 µM; in data set [13], greater than 50 µM; in [11], 7.5 ± 1.2 µM. The IC50 in data set [12] was greater than 50 µM. Also, the “Selectivity index HuTu-80” value in data set [2] was found to be 5. Moreover, the “Selectivity index KB-3-1” value in data set [3] was determined as 5.9. The “Selectivity index RAW264” value in [6] was determined as 1. In data set [15], the “solubility in cell culture medium” value is given as “poorly soluble”. Besides, in data set [11], the “Selectivity index HepG-2” value is listed as 6.6. In data set [12], the “Selectivity index A549” value was found to be 1.
